From ChEMBL document CHEMBL1130936, “Design, synthesis, and biological activity of novel purine and bicyclic pyrimidine factor Xa inhibitors” (Bioorg Med Chem Lett, 1998)

What was measured:
[1] = target: Coagulation factor X (Homo sapiens, UniProt P00742); experiment: Compound was tested for inhibitory activity against human Coagulation factor X
[2] = target: Prothrombin (Homo sapiens, UniProt P00734); experiment: Compound was tested for inhibitory activity against human thrombin
[3] = target: T1, Serine protease 1 (Bos taurus, UniProt P00760); experiment: Compound was tested for inhibitory activity against bovine trypsin
T1 sequence (P00760 whole entry): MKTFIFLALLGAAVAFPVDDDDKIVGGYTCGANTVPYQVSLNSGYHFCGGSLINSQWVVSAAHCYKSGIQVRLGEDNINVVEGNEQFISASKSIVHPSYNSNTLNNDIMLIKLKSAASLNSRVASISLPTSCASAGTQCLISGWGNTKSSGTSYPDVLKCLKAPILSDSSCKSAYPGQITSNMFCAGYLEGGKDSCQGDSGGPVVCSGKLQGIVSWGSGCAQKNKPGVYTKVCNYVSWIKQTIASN

Coagulation factor X, sequence (P00742 41-179 limits assumed): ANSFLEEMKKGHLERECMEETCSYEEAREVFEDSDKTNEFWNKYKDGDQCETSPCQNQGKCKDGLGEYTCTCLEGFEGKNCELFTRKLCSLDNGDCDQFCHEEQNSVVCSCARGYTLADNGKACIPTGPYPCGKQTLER
Coagulation factor X, sequence (P00742 235-488 limits assumed): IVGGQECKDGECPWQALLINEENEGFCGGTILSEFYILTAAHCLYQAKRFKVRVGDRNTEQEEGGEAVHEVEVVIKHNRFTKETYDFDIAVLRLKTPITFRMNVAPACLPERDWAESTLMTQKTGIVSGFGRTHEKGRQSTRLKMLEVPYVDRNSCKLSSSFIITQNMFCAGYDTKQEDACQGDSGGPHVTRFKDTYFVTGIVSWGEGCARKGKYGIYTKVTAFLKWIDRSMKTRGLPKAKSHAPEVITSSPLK

Ki [1]	Ki [2]	Ki [3]	SMILES
0.42 nM	710 nM	150 nM	Cc1nc2c(Oc3cc(C(=N)N)ccc3O)nc(Oc3cccc(C(=O)N(C)C)c3)nc2n1Cc1ccccc1
81 nM	> 5000 nM	2200 nM	CN(C)C(=O)c1cccc(Oc2nc(Oc3cc(C(=N)N)ccc3O)nc3c2NC(=O)CN3)c1
	430 nM	30 nM	N=C(N)c1ccc(/C=C2/CCCC/C(=C/c3ccc(C(=N)N)cc3)C2=O)cc1
	> 5000 nM		Cc1c(F)c(Oc2cccc(C(=N)N)c2)nc(Oc2cccc(C(=O)N(C)C)c2)c1F
19 nM	1000 nM	320 nM	CN(C)C(=O)c1cccc(Oc2nc3c(c(Oc4cc(C(=N)N)ccc4O)n2)NC(=O)CN3)c1
106 nM	> 5000 nM	> 5000 nM	CN(C)C(=O)c1cccc(Oc2nc(Oc3cc(C(=N)N)ccc3O)nc3c2NC(=O)CO3)c1
10 nM	1300 nM	760 nM	Cc1nc2c(Oc3cccc(C(=O)N(C)C)c3)nc(Oc3cc(C(=N)N)ccc3O)nc2n1Cc1ccccc1
